system: activity of 200 ng/mL of NGF (NXF promoter-driven luciferase in PC12 cells); test: Luciferase reporter assay (NXF promoter) in PC12 cells: potentiation of NGF activity; assay type: cell-based, rat; set-up: key: +: Showed relatively weak potentiation (potentiation only exhibited at 10 μM); ++: Showed potentiation; +++: Showed particularly strong potentiation (2-fold or greater potentiation of the activity of 200 ng/mL of NGF at 1 μM); settings: Test Example 1, relative luciferase activity vs 200 ng/mL NGF alone, overnight (approx. 16 hours)
Description: The forward primer 5′-[…]-3′ and the reverse primer 5′-[…]-3′ were prepared as the PCR primers according to the sequence information for the NXF gene genome sequence (Accession Nos. AB054577 and NC—000085), and the PCR method was used to isolate from approximately 5 kbp upstream from the translated region of the NXF gene promoter portion to the vicinity of the transcription start site. For this, 1 μg of mouse genomic DNA (Takara) was used as the template, and the 2-step PCR reaction was carried out for 35 cycles, the conditions for which were 95° C./1 m in the denaturing step, and 68° C./8 m in the annealing and extension steps, to obtain the PCR product. The NXF promoter fragment was inserted into the SmaI site of the pGL3 Basic vector (Promega) in the upstream of luciferase gene to prepare a reporter plasmid that would express the luciferase enzyme driven by the NXF promoter.
PC12 cells (available from the ATCC) were cultured using RPMI medium (GIBCO-BRL) with 5% FCS (GIBCO-BR) and 15% horse serum (GIBCO-BRL) added, and 1 mM in sodium pyruvate (GIBCO-BRL), at 37° C. in the presence of 5% CO2. After transfection in 10^6 of these PC12 cells for 2 days with 12 μg of the above-described reporter plasmid and 1 μg of pRC/RSV vector (Invitrogen) using the Lipofectamine 2000 reagent (Invitrogen), the medium was exchanged for fresh medium containing 40 mg/L of geneticin sulfate (GIBCO), and this was cultured continuously. Culturing was continued for approximately 1 month with medium exchange of the cultured medium containing 40 mg/L of geneticin sulfate (GIBCO) every several days, with the result that multiple colonies of the obtained cells were picked up. Among these, one of the colonies that induced luciferase activity in the presence of 40 ng/mL of NGF (Wako Pure Chemicals) was selected and used for the cells to evaluate the activity of the compounds below.
These cells were set up in 96-well plates with 80% confluence, and the luciferase reporter assay was conducted using the Promega Steady Glo luciferase assay kit. The procedure was carried out overnight (approx. 16 hours) using culture medium containing the compound, and the Steady Glo substrate solution was added to the cells in half-diluted in PBS after removal of all remaining medium containing the compound. After this was allowed to stand for 30 minutes, the respective quantity of light produced was measured with a luminometer (Envision Perkin Elmer).
The activity of the compounds for evaluation was measured as the potentiation of the activity of 200 ng/mL of NGF. For the experiment control wells, the negative control well had medium containing only a final concentration of 0.1% DMSO, the positive control well had medium containing a saturation concentration of NGF. In addition, a test well was set up containing 0.1% DMSO with 200 ng/mL of NGF added corresponding to a 0 compound concentration. When its luciferase activity was taken as a standard, the relative luciferase activity could be calculated for the test wells to which the compound solution (dissolved in DMSO and prepared to have a final DMSO concentration of 0.1%) had been added in addition to the 200 ng/mL of NGF, to find the potentiation of the activity of 200 ng/mL of NGF due to that compound.

SMILES	Activity (potentiation of NGF activity)
Cc1nc2cc(-c3nc4ccccc4o3)ccc2n1C1CCOCC1 [Ex. 11, 5-(benzoxazol-2-yl)-2-methyl-1-(tetrahydropyran-4-yl)benzimidazole]	++
c1ccc(-c2nc3cc(-c4nc5ccccc5o4)ccc3n2C2CCOCC2)nc1 [Ex. 21, 5-(benzoxazol-2-yl)-2-(2-pyridyl)-1-(tetrahydropyran-4-yl)benzimidazole]	++
Cc1nc2cc(-c3nc4ccccc4o3)ccc2n1C1CCNCC1 [Ex. 35, 5-(benzoxazol-2-yl)-1-(piperidine-4-yl)-2-methylbenzimidazole]	++
c1ccc2oc(-c3ccc4c(c3)nc(-c3ccncc3)n4C3CCOCC3)nc2c1 [Ex. 26, 5-(benzoxazol-2-yl)-2-(4-pyridyl)-1-(tetrahydropyran-4-yl)benzimidazole]	++
Cc1nc2cc(-c3cc4ccccc4[nH]3)ccc2n1C1CCOCC1 [Ex. 38, 5-(indol-2-yl)-1-(tetrahydropyran-4-yl)-2-methylbenzimidazole]	++
c1ccc2oc(-c3ccc4c(c3)nc(C3CCCCC3)n4C3CCOCC3)nc2c1 [Ex. 23, 5-(benzoxazol-2-yl)-2-cyclohexyl-1-(tetrahydropyran-4-yl)benzimidazole]	++
c1ccc(CNCc2nc3cc(-c4nc5ccccc5o4)ccc3n2C2CCOCC2)cc1 [Ex. 32, 5-(benzoxazol-2-yl)-2-benzylaminomethyl-1-(tetrahydropyran-4-yl)benzimidazole]	++
Cc1nc2cc(-c3cc4ccccc4n3C(=O)OC(C)(C)C)ccc2n1C1CCOCC1 [Ex. 37, 5-(N-t-butoxycarbonylindol-2-yl)-2-methyl-1-(tetrahydropyran-4-yl)benzimidazole]	++
c1ccc(COCc2nc3cc(-c4nc5ccccc5s4)ccc3n2-c2ccccc2)cc1 [Ex. 1, 5-(benzothiazol-2-yl)-1-phenyl-2-(phenylmethoxy)methylbenzimidazole]	+
c1ccc2oc(-c3ccc4c(c3)nc(-c3ncc[nH]3)n4C3CCOCC3)nc2c1 [Ex. 44, 5-(benzoxazol-2-yl)-2-(imidazol-2-yl)-1-(tetrahydropyran-4-yl)benzimidazole]	++
Cc1nc2cc(-c3nc4ccccc4o3)ccc2n1C1CCCCC1 [Ex. 16, 5-(benzoxazol-2-yl)-1-cyclohexyl-2-methylbenzimidazole]	++
CCOC(=O)N1CCC(n2c(C)nc3cc(-c4nc5ccccc5o4)ccc32)CC1 [Ex. 33, 5-(benzoxazol-2-yl)-1-((1-ethoxycarbonyl)piperidine-4-yl)-2-methylbenzimidazole]	++

same assay, conditions: Test Example 4, same manner as Test Example 1, relative luciferase activity vs 200 ng/mL NGF alone

SMILES	Activity (potentiation of NGF activity)
Cc1nc2cc(-c3nc4ccccc4o3)ccc2n1C1CC1 [Ex. 53, 5-(benzoxazol-2-yl)-2-methyl-1-cyclopropylbenzimidazole]	++
C(#Cc1nc2cc(-c3nc4ccccc4o3)ccc2n1C1CCOCC1)c1ccccc1 [Ex. 69, 5-(benzoxazol-2-yl)-2-(2-phenylethynyl)-1-(tetrahydropyran-4-yl)benzimidazole]	++
Cc1nc2cc(-c3nc4cc([N+](=O)[O-])ccc4o3)ccc2n1C1CCOCC1 [Ex. 60, 5-(5-nitrobenzoxazol-2-yl)-2-methyl-1-(tetrahydropyran-4-yl)benzimidazole]	++
Cc1nc2cc(-c3nc4ccccc4o3)ccc2n1Cc1ccc(C(=O)O)cc1 [Ex. 114, 5-(benzoxazol-2-yl)-1-(4-carboxyphenylmethyl)-2-methylbenzimidazole]	++
ClC(Cl)(Cl)c1nc2cc(-c3nc4ccccc4o3)ccc2n1C1CCOCC1 [Ex. 77, 5-(benzoxazol-2-yl)-1-(tetrahydropyran-4-yl)-2-trichloromethylbenzimidazole]	+
Cc1nc2cc(-c3nc4ccccc4o3)cc(C(F)(F)F)c2n1C1CCOCC1 [Ex. 94]	++
Cc1nc2cc(-c3nc4cc(C#N)ccc4o3)ccc2n1C1CCOCC1 [Ex. 75, 5-(5-cyanobenzoxazol-2-yl)-2-methyl-1-(tetrahydropyran-4-yl)benzimidazole]	++
Cc1nc2cc(-c3nc4cc(OC(F)(F)F)ccc4o3)ccc2n1C1CCOCC1 [Ex. 76, 5-(5-trifluoromethoxybenzoxazol-2-yl)-2-methyl-1-(tetrahydropyran-4-yl)benzimidazole]	++
COC(=O)c1cccc(Cn2c(C)nc3cc(-c4nc5ccccc5o4)ccc32)c1 [Ex. 117, 5-(benzoxazol-2-yl)-1-(3-methoxycarbonylphenylmethyl)-2-methylbenzimidazole]	++
Cc1nc2cc(-c3nc4ccccc4o3)c(Cl)cc2n1C1CCOCC1 [Ex. 112, 5-(benzoxazol-2-yl)-2-methyl-1-(tetrahydropyran-4-yl)-6-chlorobenzimidazole]	++
COC(=O)c1ccc(Cn2c(C)nc3cc(-c4nc5ccccc5o4)ccc32)cc1 [Ex. 113, 5-(benzoxazol-2-yl)-1-(4-methoxycarbonylphenylmethyl)-2-methylbenzimidazole]	++
c1ccc2oc(-c3ccc4c(c3)nc(CC3CCOCC3)n4C3CCOCC3)nc2c1 [Ex. 111, 5-(benzoxazol-2-yl)-1-(tetrahydropyran-4-yl)-2-(tetrahydropyran-4-yl)methylbenzimidazole]	++
C(=C\c1nc2cc(-c3nc4ccccc4o3)ccc2n1C1CCOCC1)/c1ccccc1 [Ex. 62, 5-(benzoxazol-2-yl)-2-trans-cinnam-1-(tetrahydropyran-4-yl)benzimidazole]	++
Cc1nc2cc(-c3nc4ccccc4o3)ccc2n1C1CCC(=O)CC1 [Ex. 78, 5-(benzoxazol-2-yl)-1-(cyclohexanon-4-yl)-2-methylbenzimidazole]	++
Cc1nc2cc(-c3nc4ccccc4o3)ccc2n1CC(=O)O [Ex. 92, 5-(benzoxazol-2-yl)-1-carboxymethyl-2-methylbenzimidazole]	++
c1ccc2oc(-c3ccc4c(c3)nc(-c3ccoc3)n4C3CCOCC3)nc2c1 [Ex. 64, 5-(benzoxazol-2-yl)-2-(furan-3-yl)-1-(tetrahydropyran-4-yl)benzimidazole]	++
Cc1nc2cc(-c3nc4ccccc4o3)ccc2n1CC1CCOCC1 [Ex. 84, 5-(benzoxazol-2-yl)-2-methyl-1-((tetrahydropyran-4-yl)methyl)benzimidazole]	++
Cc1nc2cc(-c3nc4ccccc4o3)ccc2n1Cc1ccccn1 [Ex. 79, 5-(benzoxazol-2-yl)-2-methyl-1-(2-picolyl)benzimidazole]	++
COc1ccc2oc(-c3ccc4c(c3)nc(C)n4C3CCOCC3)nc2c1 [Ex. 66, 5-(5-methoxybenzoxazol-2-yl)-2-methyl-1-(tetrahydropyran-4-yl)benzimidazole]	++
Cc1nc2cc(-c3nc4ccccc4o3)ccc2n1CCNC(=O)C(F)(F)F [Ex. 109, 5-(benzoxazol-2-yl)-2-methyl-1-(2-trifluoroacetylaminoethyl)benzimidazole]	++
CC(=O)OCC(c1ccccc1)n1c(C)nc2cc(-c3nc4ccccc4o3)ccc21 (stereo not shown) [Ex. 118, 5-(1-benzoxazol-2-yl)-1-(1-acetoxy-2-phenylethan-2-yl)-2-methylbenzimidazole]	++
Cc1nc2cc(-c3nc4ccccc4o3)ccc2n1C1CCCc2ccccc21 (stereo not shown) [Ex. 87, 5-(benzoxazol-2-yl)-2-methyl-1-(1,2,3,4-tetrahydronaphthalen-1-yl)benzimidazole]	++
